Measured values taken from US20230212225A1, “PEPTIDE COMPOSTIONS AND METHODS FOR TREATING TAUOPATHIES” (AXOLTIS PHARMA, priority 2019, published 2023).
Where a SMILES comes first, the peptide text is derived from it.

Key:
[1] = system: Aβ25-35-induced spatial working memory deficits; test: Place learning in the Morris water-maze (MWM), D09-D14; assay type: in vivo, mice; settings: IP 2 mg/kg once a day
Protocol: The examples are using a model of Tauopathies. In this model, mice were injected intracerebroventricularly (ICV) at Day 01 (D01) with Aβ25-35 peptide (or with scrambled-Aβ peptide (Sc.Aβ) for Sham animals). This severe animal model recapitulates modulations of specific biomarkers (including deposits of brain Amyloid Beta1-42 and hyperphosphorylated Tau protein) involved in the physiopathology and the progression of human Tauopathies, as well as strong cognitive deficits (memory loss) as encountered by the patients (Maurice et al., 1996, 1998, 2013; Meunier et al., 2006).
After the Y-Maze and instead of performing the STPA test, some animals performed the Morris Water-Maze (MWM) test in order to assess spatial working memory deficits (a six-day test from D09 to D14). This gold-standard test consists in a circular pool filled with opaque water placed in a room with external cues (sink, contrasted posters, shelves). A platform is immersed under the water surface during acquisition. Training consists in 3 swims per day for 5 days, performed between D09 to D13, with a 20 min inter-trial time. Each mouse is allowed to swim for 90 sec in order to find the platform, and to stay on it for 20 sec.
A probe test (PT) is performed 24 h after the last swim on D14. For the PT, the platform is removed, and each animal is allowed to swim for 60 sec. The start position for each mouse corresponds to one of two positions remote from the platform location in a counterbalanced order. The platform quadrant is named ‘target’ and other quadrants (opposite, adjacent right and adjacent left) are named ‘other’ during the PT. The time spent in each quadrant is recorded. The results are expressed as the percentage of time spent in the target quadrant compared to the mean percentage of time spent in the three other quadrants.
Every day, the latencies to find the platform during the first (swim1), second (swim2), third (swim3), […] trials were monitored and averaged in this six-day experiment (Maurice et al., 2013).

[2] = system: hippocampal CA1 pyramidal neurons; test: Histological study, cresyl violet CA1 pyramidal neuron counting, D15; assay type: in vivo, mice
Description: In order to measure neuronal loss in this model (as described by Maurice et al., 2013), a well-known pathological event occurring in patients with AD/Tauopathies, hippocampal neurons were counted in the brain of Sham, Aβ25-35 / vehicle and Aβ25-35 / NX210-treated mice.
To do so, fourteen days after ICV injection of Aβ25-35 or Scrambled peptide (D15) and daily compound administrations of NX210 (IP) or vehicle (IP), mice were anaesthetized by ketamine/xylazine and then transcardially perfused with phosphate buffer solution (PBS, 15 ml at 5 ml/min, pH 7.4) until fluid running clear, followed by a solution of 4% paraformaldehyde (PFA, 25 ml at 5 ml/min) until the fixation tremors disappeared. Brains were removed carefully and kept in 4% PFA at 4° C. for 24-48 h. Brains were then dehydrated through a series of graded ethanol baths to displace the water, and then infiltrated with wax. Finally, the infiltrated brains were embedded into wax blocks and sectioned at […]. Cresyl violet (CV) staining was performed on 9 brain sections per animal, each coronal section separated by 100 µm for CA1 pyramidal neuron counting.

N=C(N)NCCC[C@H](NC(=O)[C@H](CO)NC(=O)[C@H](CS)NC(=O)[C@H](CO)NC(=O)[C@H](CO)NC(=O)[C@H](Cc1c[nH]c2ccccc12)NC(=O)CNC(=O)[C@H](CO)NC(=O)[C@@H](N)Cc1c[nH]c2ccccc12)C(=O)N[C@@H](CO)C(=O)N[C@@H](CS)C(=O)NCC(=O)O [NX210, W-S-G-W-S-S-C-S-R-S-C-G] (H-WSGWSSCSRSCG-OH; N-terminus and C-terminus assumed)
effect on learning profile and spatial memory deficits (MWM), in words [1]: significantly rescued
MWM - Probe test, mean percentage of time spent in the three other quadrants (Other) ([1]; D14): 20.30%
MWM - Learning profile, Mean time spent to find the platform (last block, heading missing) ([1]; fifth training day): 24.25 s
MWM - Learning profile - Day 1, Mean time spent to find the platform ([1]; training Day 1): 79.67 s
MWM - Learning profile - Day 2, Mean time spent to find the platform ([1]; training Day 2): 53.58 s
MWM - Learning profile - Day 3, Mean time spent to find the platform ([1]; training Day 3): 35.83 s
MWM - Learning profile - Day 4, Mean time spent to find the platform ([1]; training Day 4): 25.92 s
effect on neuronal loss in the hippocampus, in words ([2]; 2 mg/kg): significantly prevents
Histology %, percentage of control (Sc.Aβ / Vhc) ([2]; IP 2 mg/kg once a day, D15): 93%
Histology Mean ([2]; IP 2 mg/kg once a day, D15): 311.84 number of neurons per mm of tissue
